The target of experiment [1] is T1, P. falciparum Hsp90 (PfHsp90, PF07_0029) (Plasmodium falciparum, UniProt Q8IC05). Put plainly: SPR (Biacore X), positive control; also full-length ATPase inhibition, […]. Details: gene PF3D7_0708400; full length also tested in ATPase assay. It counts as binding. On the technique in general: Surface plasmon resonance follows binding to a sensor surface in real time, without labels.
Target sequence in this assay (Q8IC05 entry or part of it): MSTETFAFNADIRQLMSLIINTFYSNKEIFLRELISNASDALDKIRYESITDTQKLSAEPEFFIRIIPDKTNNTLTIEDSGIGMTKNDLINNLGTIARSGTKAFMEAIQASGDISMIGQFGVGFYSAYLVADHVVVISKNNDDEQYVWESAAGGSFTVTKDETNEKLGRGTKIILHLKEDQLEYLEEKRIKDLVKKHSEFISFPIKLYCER

In experiment [2] the target is T1, P. falciparum Hsp90 (PfHsp90, PF07_0029). Put plainly: coupled LDH/NADH ATPase assay, positive control. Type of experiment: biochemical. Details: gene PF3D7_0708400; full-length PfHsp90.
Target sequence in this assay (Q8IC05 1-745): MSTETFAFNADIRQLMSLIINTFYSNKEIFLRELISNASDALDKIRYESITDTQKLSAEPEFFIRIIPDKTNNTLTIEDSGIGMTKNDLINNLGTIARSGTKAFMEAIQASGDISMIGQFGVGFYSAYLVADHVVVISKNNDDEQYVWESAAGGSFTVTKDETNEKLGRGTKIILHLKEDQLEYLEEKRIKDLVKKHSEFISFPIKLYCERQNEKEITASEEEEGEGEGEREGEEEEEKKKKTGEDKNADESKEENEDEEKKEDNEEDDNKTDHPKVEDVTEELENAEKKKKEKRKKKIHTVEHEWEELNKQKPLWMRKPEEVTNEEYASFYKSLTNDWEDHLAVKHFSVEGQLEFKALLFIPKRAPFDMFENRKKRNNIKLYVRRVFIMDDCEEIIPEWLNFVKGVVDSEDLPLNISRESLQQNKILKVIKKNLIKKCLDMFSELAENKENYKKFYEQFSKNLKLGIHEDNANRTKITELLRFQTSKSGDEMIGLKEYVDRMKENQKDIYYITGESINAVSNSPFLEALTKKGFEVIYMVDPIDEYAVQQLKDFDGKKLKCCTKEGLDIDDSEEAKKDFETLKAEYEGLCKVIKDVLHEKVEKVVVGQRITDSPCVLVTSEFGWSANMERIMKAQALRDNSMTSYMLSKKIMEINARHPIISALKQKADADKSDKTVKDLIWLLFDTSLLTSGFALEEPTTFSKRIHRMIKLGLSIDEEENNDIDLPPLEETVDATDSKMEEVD

In experiment [1], `C=CCNC1=C2C[C@@H](C)C[C@H](OC)[C@H](O)[C@@H](C)/C=C(\C)[C@H](OC(N)=O)[C@@H](OC)/C=C\C=C(/C)C(=O)NC(=CC1=O)C2=O` [17-AAG] yielded a Kd of 105 ± 0.33 µM.

With `C[C@@H]1C[C@H]2O[C@@H]2/C=C\C=C\C(=O)Cc2c(Cl)c(O)cc(O)c2C(=O)O1` [radicicol], in experiment [2], the IC50 turned out to be 0.144 µM.

What is called Kd is the concentration at which binding is half-saturated. Usually IC50 stands for the midpoint of a concentration-inhibition curve. Lower therefore signals higher potency.

Source of the values: article PMC3787104, “A Purine Analog Synergizes with Chloroquine (CQ) by Targeting Plasmodium falciparum Hsp90 (PfHsp90)” (PLoS ONE, 2013).
